Data set [1] is described as follows: IV pharmacokinetics. The format is in vivo, Sprague Dawley rats. To be noted: rat, 2 mg/kg, normal saline (compounds marked * in 1% NMP and 99% normal saline). An excerpt:
The table below summarizes the results of the IV pharmacokinetics.

For data set [2] the following is noted: Sprague Dawley, rat, in vivo, po, 10 mg/kg.
Procedure: (§1) Plasma, brain, and CSF samples were analyzed at various time points over a 24 hour period.
Data set [3] can be described thus: in vivo. To be noted: Sprague Dawley, rat, po, 10 mg/kg.
Procedure: as §1

Where two headings read alike, the source gives them in different places.

With `C[C@@H](O)[C@H](N)C(=O)N1CCN(C)CC12CNC2=O` (single isomer, unassigned) [EJ-2, 5-(L-Threonyl)-8-Methyl-2,5,8-Triazaspiro[3.5]Nonan-1-One], in data set [1], the AUClast stood at 1737 ng·h/mL, the C0 came to 3415.56 ng/mL, the Cl is given as 18.95 mL/min/kg and the T1/2 is 1.59 h. In addition, the volume of distribution (Vss) (in general, a proportionality between amount in the body and measured concentration, not a real space) in data set [1] was 1.35 L/kg. In data set [2], the “% F” value is on record as 9%; the AUClast worked out at 811.97 ng·h/mL; the Cmax (in general, the peak of the concentration-time curve) turned out to be 201.12 ng/mL; the Tmax – broadly, the time from dosing to the highest level – is 1.33 h.
`C[C@@H](O)[C@H](N)C(=O)N1CCN(C)CC12CNC2=O` (single isomer, unassigned) [EJ-1, 5-(L-Threonyl)-8-Methyl-2,5,8-Triazaspiro[3.5]Nonan-1-One]: in data set [1] (Sprague Dawley, in vivo, iv), the AUC(0-t) (usually the area under the concentration-time curve up to a stated or last time point) turned out to be 3160 ng·h/mL; the clearance (commonly the rate of elimination divided by the concentration) was determined as 10.5 mL/min/kg; the half-life (in general, the time in which the quantity being followed falls by half) is 1.3 h. Further, the C0 in data set [1] (Sprague Dawley, in vivo, iv, read-out: C0) amounted to 4030 ng/mL. The same compound yielded a Vss in data set [1] of 0.62 L/kg. Also, the “% F” value in data set [2] is given as 4%. In data set [3] (AUClast), this compound returned an AUC(0-t) of 568 ng·h/mL. Moreover, in data set [3] (Cmax), the peak level (Cmax) was 186 ng/mL. Further, the Tmax in data set [3] (Tmax) was 0.75 h.

The record behind these values is patent US20230131402A1, “SPIRO-LACTAM NMDA RECEPTOR MODULATORS AND USES THEREOF” (Aptinyx Inc., priority 2016, published 2023).
